According to patent US8969296B2, “TGFP-CAP peptide and its uses” (Caregen Co., Ltd, priority 2007, dated 2015):
Where a SMILES comes first, the peptide text is derived from it.

Key:
[1] = system: TRP-1 (tyrosinase related protein-1) and TRP-2; assay: Levels of TRP-1 and TRP-2 in melanoma cells (Western blotting); assay type: cell-based; conditions: 10 μM PD98059; with 10 ng/ml TGF-β1 or 30 μg/ml tridecapeptide
[2] = system: ERK 1/2; assay: Western blotting of Phospho ERK 1/2 in melanoma cells; assay type: cell-based; conditions: 10 μM PD98059; with 10 ng/ml TGF-β1 or 30 μg/ml tridecapeptide
Description: Furthermore, to clearly verify the influence of TGF-β1 and tridecapeptide on signaling events, melanoma cells were cultured as described above and then incubated simultaneously with 10 μM PD98059 and 30 μg/ml tridecapeptide. Proteins from cell extracts were prepared and developed on SDS-PAGE, followed by electro-transferring to PVDF (polyvinylidene difluoride) membrane (GE Health Care). Afterwards, the PVDF membrane was incubated with Phospho ERK 1/2 antibodies (1/3000 diluted, Cell Signaling, USA) for 4 hr at room temperature. The PVDF membrane was washed with a washing buffer and incubated with HRP-conjugated anti-mouse IgG antibodies (1/5000 diluted, SantaCruz, USA). Then, it was washed twice with a washing buffer and incubated with ECL (enhanced chemilumineseance) solution (GE Health Care) (FIG. 6). In FIG. 6, among PD98059 treatment groups, the symbol “Con” is a group incubated with only 10 μM PD98059 and “TGFb1” is a group incubated with both 10 μM PD98059 and 10 ng/ml TGF-β1.

[3] = system: B16F10 cells; assay: Melanosome formation under ERK inhibition by PD98059 (microscopy); assay type: cell-based; conditions: 10 μM PD98059; with 1 ng/ml transforming growth factor or 30 μg/ml tridecapeptide; 4 days
Description: To reveal skin whitening effects of the tridecapeptide synthesized in Example 1 and transforming growth factor, the activation of ERK was inhibited with PD98059 (Sigma) and then its inhibitory influence was evaluated after peptide treatment. B16F10 cells were seeded in 6-well culture dishes in a density of 1×10^5 cells/well and cultured in DMEM for 3 days at 37° C. under 5% CO2 conditions. After cell adhesion was observed, medium was changed with a fresh medium containing 2% serum. The negative control was not subject to any treatment. Cells plated in other two culture dishes were incubated with either 1 ng/ml transforming growth factor or 30 μg/ml tridecapeptide. In addition, cells cultured in other three dishes as a positive control were incubated with 10 μM PD98059 to inhibit ERK phosphorylation. Among them, cells contained in two dishes were incubated for 4 days with either 1 ng/ml transforming growth factor or 30 μg/ml tridecapeptide after 1-hr PD98059 treatment and their morphology was observed under microscopes.

[4] = system: NIH3T3; assay: Cytotoxicity test, SRB colorimetric assay, fibroblasts; assay type: cell-based; conditions: 500 pg/ml-200 μg/ml, 72 hr
Description: (§1) To verify cytotoxicity of peptides of this invention on keratinocytes, fibroblasts and melanoma cells, SRB (Sulforhodamine B) colorimetric assay was carried out using HaCaT, NIH3T3 and B16F10 cells according to Rizzino et al method (Rizzino, et al. Cancer Res., 48:4266 (1988)). HaCaT, NIH3T3 or B16F10 cells (Korean Cell Line Bank) were cultured in 250 ml-flasks containing EMEM (Eagle's minimal essential media, Gibco, U.S.A.) supplemented with […] (fetal bovine serum). Cells cultured were treated with 0.25% trypsin solution to detach cells from the bottom of culture flasks and centrifuged to collect cell pellets. Cells were resuspended in EMEM not containing FBS, its aliquot (1×10^5) cells was added to each well of 96-well plates and cultured under 7% CO2 for 24 hr at 37° C. After 24-hr culture, the medium was changed with a fresh medium not containing serum and cells were incubated with the tridecapeptide (500 pg/ml, 10 ng/ml, 1 μg/ml, 100 μg/ml and 200 μg/ml) dissolved in 10% DMSO for 72 hr under the same conditions as described above. After removing supernatants, cells were washed once using PBS and incubated with SRB solution (Sigma). Cells were washed with PBS and observed under a microscope to find cell viability. In addition, absorbance at 590 nm was measured to analyze cell proliferation.

[5] = system: B16F10; assay: Cytotoxicity test, SRB colorimetric assay, melanoma cells; assay type: cell-based; conditions: 500 pg/ml-200 μg/ml, 72 hr
Description: as §1

[6] = system: HaCaT; assay: Cytotoxicity test, SRB colorimetric assay, keratinocytes; assay type: cell-based; conditions: 500 pg/ml-200 μg/ml, 72 hr
Description: as §1

[7] = system: NIH-3T3 cells; assay: Stability analysis: remaining activity of solutions stored at 37° C., by MTT assay; assay type: physicochemical; conditions: 50 mM Tris-HCl (pH 8.0), days 0-100, tridecapeptide 10 μg/ml, TGF-β1 1 μg/ml
Description: To evaluate stability of the purified tridecapeptide, NH2-Ile-Trp-Ser-Leu-Asp-Thr-Gln-Tyr-Gly-Gly-Arg-Gly-Asp-OH, it was dissolved in 50 mM Tris-HCl (pH 8.0) to a concentration of 10 μg/ml. A recombinant TGF-β1 (Sigma) produced by E. coli was prepared as a control in the same buffer to a concentration of 1 μg/ml. The prepared solutions were introduced into glass vials and kept to stand at 37° C. Afterwards, the solutions were taken on days 0, 1, 10, 25, 50, 75 and 100 and subjected to a MTT assay (Scudiero, D. A., et al. Cancer Res. 48:4827-4833 (1988)) using NIH-3T3 cells (Korean Cell Line Bank) for determining their remaining activity (FIG. 2). The results were given as relative values to the activity (100%) of sample taken on day 0.

[8] = system: tyrosinase; assay: Tyrosinase activity in extracts of treated B16F10 cells (L-DOPA, absorbance 405 nm); assay type: cell-based; conditions: α-MSH 200 ng/ml, TGFβ-1 10 ng/ml or peptide 10 ng/ml-30 μg/ml, 4 days
Description: The tridecapeptide synthesized in Example 1 was analyzed to decrease levels of melanin pigment. B16F10 cells (Korean Cell Line Bank) were plated in a density of 1×10^5 cells/well and cultured in DMEM (Sigma) for 3 days at 37° C. under 5% CO2 conditions. After cell adhesion was observed, medium was changed with a fresh medium containing 2% serum. Cells were incubated with tested materials in determined concentrations for 4 days at 37° C. under 5% CO2 conditions. The tested materials were prepared in such a manner that components indicated in Table 6 were dissolved in medium and diluted with a mixed solvent of propylene glycol:ethanol:distilled water (5:3:2).
Afterwards, cells were harvested and treated with a lysis buffer containing sodiumdodecylsulfate (Sigma) and Triton X-100 (Sigma) to extract intracellular proteins. The extracted proteins were quantitated by the BCA method. For each experiment group, 90 μl of protein solution and 10 μl of L-DOPA (Sigma) were added and reacted for 30 min. The resultants were analyzed to measure their absorbance values at 405 nm for evaluating tyrosinase activities.

[9] = system: Mice melanocytes; assay: Inhibition of melanin generation induced by α-MSH (Dooley method); assay type: cell-based; conditions: α-MSH 200 ng/ml; peptide 10 ng/ml-30 μg/ml; 3 days; absorbance 400 nm
Description: The tridecapeptide synthesized in Example 1 was analyzed to decrease levels of melanin pigment. Mice melanocytes cultured were incubated with α-MSH (melanocyte stimulating hormone/Sigma) and then with the tridecapeptide in the determined concentrations to measure inhibition effects on melanin generation. Mice melanocytes were originated from C57BL/6 mice and cultured in DMEM (Dulbecco's modified Eagle's media) containing 10% fetal bovine serum at 37° C. under 5% CO2 conditions. Cells were cultured in a density of 1×10^5 cells/well and their adhesion to culture plates was observed. Then, cells were incubated with materials to be tested for 3 days. The tested materials were prepared in such a manner that components indicated in Table 5 were dissolved in medium and diluted with a mixed solvent of propylene glycol:ethanol:distilled water (5:3:2). Following removal of medium, cells were washed with PBS and treated with 1 N sodium hydroxide. The resultants were analyzed to measure their absorbance values at 400 nm.

Row | Molecule | levels of TRP-1 and TRP-2 [1] | levels of Phospho ERK 1 and ERK 2 [2] | melanosome number [3] | cell number (cytotoxicity) [4] | cell number (cytotoxicity) [5] | cell number (cytotoxicity) [6] | remaining activity over time (relative to day 0 = 100%) [7] | tyrosinase activity [8] | melanin generation / melanin content [9]
1 | COc1cccc(-c2cc(=O)c3ccccc3o2)c1N [PD98059, reference compound] | increased | greatly decrease levels of Phoshpo ERK 1 and ERK 2 | a large number of darkish pigments by induced melanosomes |  |  |  |  |  | 
2 | CC[C@H](C)[C@H](N)C(=O)N[C@@H](Cc1c[nH]c2ccccc12)C(=O)N[C@@H](CO)C(=O)N[C@@H](CC(C)C)C(=O)N[C@@H](CC(=O)O)C(=O)N[C@H](C(=O)N[C@@H](CCC(N)=O)C(=O)N[C@@H](Cc1ccc(O)cc1)C(=O)NCC(=O)NCC(=O)N[C@@H](CCCNC(=N)N)C(=O)NCC(=O)N[C@@H](CC(=O)O)C(=O)O)[C@@H](C)O [tridecapeptide, NH2-Ile-Trp-Ser-Leu-Asp-Thr-Gln-Tyr-Gly-Gly-Arg-Gly-Asp-OH] (H-IWSLDTQYGGRGD-OH) |  |  |  | the decrease in cell number was not shown | the decrease in cell number was not shown | the decrease in cell number was not shown |  |  | 
3 | TGF-β1: recombinant TGF-β1 (Sigma) produced by E. coli, used as control | decreased | elevated levels of Phoshpo ERK 1 and ERK 2 | significantly reduced melanosome number |  |  |  | sharply decreased with the lapse of time | relatively reduced tyrosinase activity in a dose dependent manner | 
4 | α-MSH: melanocyte stimulating hormone/Sigma, used to induce melanin generation (Ac-SYSMEHFRWGKPV-NH2; ends and bridges not checked; UniProt P01189 138-150, looked up) [reference compound] |  |  |  |  |  |  |  | highly elevated level of tyrosinase activity | highly elevated level of melanin production
